Values quoted from earlier work as cited in PubChem BioAssay AID1259409 (Chemical Carcinogenesis Research Information System (CCRIS), 2018).

Test system: rodent chemically induced tumor inhibition, incidence and multiplicity
Assay: CCRIS tumor inhibitor studies
Conditions: Route [Inhibitor]: ORAL, Promoter: NONE USED

## CCCN(CCC)c1c([N+](=O)[O-])cc(C(F)(F)F)cc1[N+](=O)[O-]
Carcinogen: BENZO[A]PYRENE, 50-32-8, Dose [Inhibitor]: 1000 PPM IN DIET CONTAINING 5% CORN OIL BEGINNING 1 WK PRIOR TO 1ST CARCINOGEN TREATMENT AND CONTINUING FOR 18 WK (STUDY, Species: MOUSE, Strain/Sex: STRAIN-A/FEMALE, Target Tissue: Type of Lesion: FORESTOMACH: SQUAMOUS CELL PAPILLOMA, Dose [Carcinogen]: 3 MG IN 0.25 ML CORN OIL AT 10 AND 12 WK OF AGE
  tumour outcome (control, treated, inhibition, significance): 100%, 84%, 16%, not significant
Carcinogen: BENZO[A]PYRENE, 50-32-8, Dose [Inhibitor]: 1000 PPM IN DIET CONTAINING 5% CORN OIL BEGINNING 1 WK PRIOR TO 1ST CARCINOGEN TREATMENT AND CONTINUING FOR 18 WK (STUDY, Species: MOUSE, Strain/Sex: STRAIN-A/FEMALE, Target Tissue: Type of Lesion: LUNG: ADENOMA, Dose [Carcinogen]: 3 MG IN 0.25 ML CORN OIL AT 10 AND 12 WK OF AGE
  tumour outcome (control, treated, inhibition, significance): 97%, 96%, 1%, not significant
Carcinogen: BENZO[A]PYRENE, 50-32-8, Dose [Inhibitor]: 1500 PPM IN DIET CONTAINING 5% CORN OIL BEGINNING 1 DAY POST LAST CARCINOGEN DOSE AND CONTINUING FOR 12 WK (STUDY DURATI, Species: MOUSE, Strain/Sex: STRAIN-A/FEMALE, Target Tissue: Type of Lesion: LUNG: ADENOMA, Dose [Carcinogen]: 3 MG IN 0.25 ML CORN OIL AT 6 AND 8 WK OF AGE
  tumour outcome (control, treated, inhibition, significance): 80%, 32%, 60%, not significant
Carcinogen: BENZO[A]PYRENE, 50-32-8, Dose [Inhibitor]: 1500 PPM IN DIET CONTAINING 5% CORN OIL BEGINNING 1 WK POST LAST CARCINOGEN DOSE AND CONTINUING FOR 12 WK (STUDY DURATIO, Species: MOUSE, Strain/Sex: STRAIN-A/FEMALE, Target Tissue: Type of Lesion: FORESTOMACH: SQUAMOUS CELL PAPILLOMA, Dose [Carcinogen]: 3 MG IN 0.25 ML CORN OIL AT 6 AND 8 WK OF AGE
  tumour outcome (control, treated, inhibition, significance): 100%, 88%, 12%, not significant
Carcinogen: BENZO[A]PYRENE, 50-32-8, Dose [Inhibitor]: 1500 PPM IN DIET CONTAINING 5% CORN OIL BEGINNING 4 D POST LAST CARCINOGEN DOSE AND CONTINUING FOR 12 WK (STUDY DURATION, Species: MOUSE, Strain/Sex: STRAIN-A/FEMALE, Target Tissue: Type of Lesion: FORESTOMACH: SQUAMOUS CELL PAPILLOMA, Dose [Carcinogen]: 3 MG IN 0.25 ML CORN OIL AT 6 AND 8 WK OF AGE
  tumour outcome (control, treated, inhibition, significance): 92%, 80%, 13%, not significant
Carcinogen: BENZO[A]PYRENE, 50-32-8, Dose [Inhibitor]: 1500 PPM IN DIET CONTAINING 5% CORN OIL BEGINNING 4 D POST LAST CARCINOGEN DOSE AND CONTINUING FOR 12 WK (STUDY DURATION, Species: MOUSE, Strain/Sex: STRAIN-A/FEMALE, Target Tissue: Type of Lesion: LUNG: ADENOMA, Dose [Carcinogen]: 3 MG IN 0.25 ML CORN OIL AT 6 AND 8 WK OF AGE
  tumour outcome (control, treated, inhibition, significance): 72%, 40%, 44%, not significant
Carcinogen: BENZO[A]PYRENE, 50-32-8, Dose [Inhibitor]: 1500 PPM IN DIET CONTAINING 5% CORN OIL BEGINNING 7 D POST LAST CARCINOGEN DOSE AND CONTINUING FOR 12 WK (STUDY DURATION, Species: MOUSE, Strain/Sex: STRAIN-A/FEMALE, Target Tissue: Type of Lesion: FORESTOMACH: SQUAMOUS CELL PAPILLOMA, Dose [Carcinogen]: 3 MG IN 0.25 ML CORN OIL AT 6 AND 8 WK OF AGE
  tumour outcome (control, treated, inhibition, significance): 100%, 92%, 8%, not significant
Carcinogen: BENZO[A]PYRENE, 50-32-8, Dose [Inhibitor]: 1500 PPM IN DIET CONTAINING 5% CORN OIL BEGINNING 7 D POST LAST CARCINOGEN DOSE AND CONTINUING FOR 12 WK (STUDY DURATION, Species: MOUSE, Strain/Sex: STRAIN-A/FEMALE, Target Tissue: Type of Lesion: LUNG: ADENOMA, Dose [Carcinogen]: 3 MG IN 0.25 ML CORN OIL AT 6 AND 8 WK OF AGE
  tumour outcome (control, treated, inhibition, significance): 72%, 60%, 17%, not significant
Carcinogen: BENZO[A]PYRENE, 50-32-8, Dose [Inhibitor]: 1500 PPM IN DIET CONTAINING 5% CORN OIL BEGINNING ON DAY OF LAST CARCINOGEN DOSE AND CONTINUING FOR 12 WK (STUDY DURATIO, Species: MOUSE, Strain/Sex: STRAIN-A/FEMALE, Target Tissue: Type of Lesion: FORESTOMACH: SQUAMOUS CELL PAPILLOMA, Dose [Carcinogen]: 3 MG IN 0.25 ML CORN OIL AT 6 AND 8 WK OF AGE
  tumour outcome (control, treated, inhibition, significance): 88%, 100%, -14%, not significant
Carcinogen: BENZO[A]PYRENE, 50-32-8, Dose [Inhibitor]: 1500 PPM IN DIET CONTAINING 5% CORN OIL BEGINNING ON DAY OF LAST CARCINOGEN DOSE AND CONTINUING FOR 12 WK (STUDY DURATIO, Species: MOUSE, Strain/Sex: STRAIN-A/FEMALE, Target Tissue: Type of Lesion: LUNG: ADENOMA, Dose [Carcinogen]: 3 MG IN 0.25 ML CORN OIL AT 6 AND 8 WK OF AGE
  tumour outcome (control, treated, inhibition, significance): 76%, 52%, 32%, not significant
Carcinogen: BENZO[A]PYRENE, 50-32-8, Dose [Inhibitor]: 2000 PPM IN DIET CONTAINING 5% CORN OIL BEGINNING 1 WK PRIOR TO 1ST CARCINOGEN TREATMENT AND CONTINUING FOR 18 WK (STUDY, Species: MOUSE, Strain/Sex: STRAIN-A/FEMALE, Target Tissue: Type of Lesion: FORESTOMACH: SQUAMOUS CELL PAPILLOMA, Dose [Carcinogen]: 3 MG IN 0.25 ML CORN OIL AT 10 AND 12 WK OF AGE
  tumour outcome (control, treated, inhibition, significance): 100%, 63%, 37%, not calculated
Carcinogen: BENZO[A]PYRENE, 50-32-8, Dose [Inhibitor]: 2000 PPM IN DIET CONTAINING 5% CORN OIL BEGINNING 1 WK PRIOR TO 1ST CARCINOGEN TREATMENT AND CONTINUING FOR 18 WK (STUDY, Species: MOUSE, Strain/Sex: STRAIN-A/FEMALE, Target Tissue: Type of Lesion: LUNG: ADENOMA, Dose [Carcinogen]: 3 MG IN 0.25 ML CORN OIL AT 10 AND 12 WK OF AGE
  tumour outcome (control, treated, inhibition, significance): 97%, 74%, 24%, not calculated

## CC(C)=CCC/C(C)=C/CO
Carcinogen: 7,12-DIMETHYLBENZ[A]ANTHRACENE, 57-97-6, Dose [Inhibitor]: 0, 36 MMOL/KG IN DIET FOR 24 WK BEGINNING 2 WK PRIOR TO CARCINOGEN DOSE (STUDY DURATION: 24 WK), Species: RAT, Strain/Sex: SPRAGUE-DAWLEY/FEMALE, Target Tissue: Type of Lesion: MAMMARY GLAND: TUMOR, Dose [Carcinogen]: 65 MG/KG BW ONCE
  tumour outcome (control, treated, inhibition, significance): 91%, 81%, 11%, not significant

## N[C@@H](CSSC[C@H](N)C(=O)O)C(=O)O
Carcinogen: 4-DIMETHYLAMINOAZOBENZENE, 60-11-7, Dose [Inhibitor]: 0.5% OF DIET DAILY STARTING SIMULTANEOUSLY WITH CARCINOGEN TREATMENT AND CONTINUING THROUGH THE END OF THE STUDY (STUDY, Species: RAT, Strain/Sex: OSBORNE-MENDEL/MALE, Target Tissue: Type of Lesion: LIVER: HEPATOMA, ADENOCARCINOMA, Dose [Carcinogen]: 0.06% OF DIET DAILY THROUGH THE END OF THE STUDY
  tumour outcome (control, treated, inhibition, significance): 48/80 (60%), 84/87 (97%), -62%, not calculated

## O=[As]O
Carcinogen: NONE USED, Dose [Inhibitor]: 10 PPM IN DRINKING WATER DAILY FOR DURATION OF STUDY (STUDY DURATION: 16 MO), Species: MOUSE, Strain/Sex: C3H/FEMALE, Target Tissue: Type of Lesion: MAMMARY GLAND: ADENOCARCINOMA
  tumour outcome (control, treated, inhibition, significance): 82%, 27%, 67%, not calculated
Carcinogen: NONE USED, Dose [Inhibitor]: 80 PPM IN DRINKING WATER DAILY STARTING AT AGE 1 MO AND CONTINUING FOR LIFE (STUDY DURATION: LIFE), Species: MOUSE, Strain/Sex: C3H/FEMALE, Target Tissue: Type of Lesion: MAMMARY GLAND: TUMOR
  tumour outcome (control, treated, inhibition, significance): 82%, 40%, 51%, p 0.02
